Values after ≈ are worked out from the molar mass of the structure shown.
Tests used:
[1] = aqueous solubility of the compound of Chemical Formula 1; assay type: physicochemical
[2] = partition coefficient (octanol/water); assay type: physicochemical
[3] = adsorption rate of vactosertib onto bentonite; assay type: physicochemical
Procedure: The adsorption rates of vactosertib and bentonite according to the pH of a solvent were evaluated. At this time, considering that the vactosertib was not dissolved in neutral, but stated to be dissolved in about 1 mg/mL from pH 3, a test was performed by setting a reaction pH to pH 1, pH 2, and pH 3. First, 10 mg/mL of the vactosertib was dissolved in a 0.1 N hydrochloric acid aqueous solution and diluted with a hydrochloric acid aqueous solution or a phosphate buffer solution (pH 1: 0.1 N hydrochloric acid aqueous solution, pH 2, pH 3: phosphate buffer solution) corresponding to each pH to adjust the concentration to 1 mg/mL. 1 mL of a corresponding drug solution, 8 mL of a reaction solution (that is, 0.1 N hydrochloric acid aqueous solution or phosphate buffer solution) corresponding to each pH, and 1 mL of a 5 mg/mL suspension in which bentonite was suspended in distilled water were mixed and left for 30 minutes to adsorb the drug onto the bentonite. Thereafter, a drug concentration of a supernatant obtained by centrifugation (3,000 rpm, 5 minutes) was analyzed. Through this, the drug amount adsorbed onto the bentonite was indirectly calculated as shown in Equation 1 by removing the remaining drug amount in the supernatant from the entirely applied drug (vactosertib) to calculate an adsorption rate. [formula] [formula] To this end, a sample was prepared in the same manner as in Test Example 1, and a complex was prepared by fixing a reaction concentration and a reaction pH of bentonite to 0.5 mg/mL and pH 1, respectively, and varying the concentration of the applied vactosertib from 0.01 mg/mL to 0.5 mg/mL. In addition, a difference in adsorption rate according to the concentration of vactosertib was measured. To this end, a sample was prepared in the same manner as in Test Example 1, and a complex was prepared by using a solvent of pH 1, setting a concentration ratio of vactosertib and bentonite to 1:5, and varying an absolute concentration (that is, actual concentration). In addition, a difference in adsorption rate according to an absolute concentration was measured.

[4] = tested on: ulcerative colitis mouse model induced with DSS; experiment: histopathological severity scores in ulcerative colitis mouse model induced with DSS; assay type: in vivo, C57BL/6 mice
Procedure: Animal tests were performed to confirm anti-inflammatory, anti-crypt cell damage, anti-ulcer, anti-edema, and anti-fibrosis effects of a vactosertib/bentonite complex using a mouse model of ulcerative colitis as one of inflammatory bowel diseases. C57BL/6 mice were selected as test animals, and in order to induce ulcerative colitis, a cycle in which an inflammation inducing substance, DSS was added in drinking water and supplied for 7 days, and then normal drinking water was supplied for 14 days was repeated. Such an inflammation inducing cycle was repeated 3 times to induce chronic inflammation, ulcer and fibrous conditions in the large intestine. To test animal groups except for control groups, from 3 weeks after a first inflammation inducing cycle was elapsed, bentonite, vactosertib, or a vactosertib/bentonite complex was administered twice a day (10 am, 4 pm), 5 days a week, and for total 6 weeks. The bentonite per 1 kg of converted mouse weight was administered with 106.8 mg, the vactosertib was administered with 20.0 mg, and the complex was administered with 126.8 mg. At this time, as the vactosertib/bentonite complex, the complex prepared in Test Example 5 was used. For each test group used in ulcerative colitis animal tests, inflammation inducing substances, test substances, doses of the test substances, and the number of test animals were shown in Table 7 below.
C57BL/6 mice used in the test were supplied from the Orient Bio Gapyeong Center (699-13, Mokdong-ri, Buk-yeon, Gapyeong-gun, Gyeonggi-do), and about 6-week-old during obtaining. For about 7 days after obtaining, the rats were quarantined and purified and then healthy animals were used for the test. When the induced material was administered, the test animals were about 8-week-old, and 52 mice were used. The test animals were bred in the 2nd floor of Clean Animal Room, Bioscience Research Institute, Research Institute of Medical Science at Inha University, and circulated in at least 10 times/hour and bred under conditions of a temperature of 22±4° C., relative humidity of 50±20%, and illuminance of 150 to 300 Lux of lighting on for 12 hours (lighting: 08:00 to 20:00). A radiation solid feed (FeedLab GMO Free Rodent Diet GF2005) for rodents was free-taken using a feeder and water sterilized by an ultraviolet-ray flowing water sterilizer and high-pressure vapor after reverse osmosis was free-taken using a polysulfonate-made drinking water bottle (300 ml).
In order to induce ulcerative colitis, 2% DSS was added in drinking water of mice and continuously supplied for first 7 days of every test cycle (3 weeks). The test substances were orally administered 2 times a day, 5 days a week, and for a total of 6 weeks at the same time of second DSS induction (FIG. 14). The test substance dose was administered in a liquid amount of 20 mL per kg by body weight converted for each individual based on the body weight. The administration was orally performed by putting a test substance in a syringe and injecting the test substance by connecting a feeding needle for rats.
In order to evaluate a treatment effect of test substances on ulcerative colitis, after the end of the test, the animal was anesthetized, opened, and bled and then a histopathological test was performed for each individual. Histopathological findings were subdivided and scored into severity changes of inflammation, crypt cell damage, ulcer, edema, and fibrosis as shown in Table 8 below. In addition, the four histopathological severity scores excluding fibrosis were summed to compare a positive control (G2) and test substance-administered groups (G3, G4, and […]).
Statistical analysis was performed using Graphpad Prism version 8.01, and a minimum unit of significance was set to p<0.05. Since all measured histopathological indexes were nonparametric data, the indexes were represented by a median, 25% to 75% values (in the box), and minimum-maximum values (both ends) in the graph (FIGS. 15 to 20). […]

interleukin 6 (IL-6) = experiment: immunohistochemical IL-6 staining of large intestine, DSS ulcerative colitis mouse model; assay type: in vivo, C57BL/6 mice; details: DSS 2% mice, same dosing
Procedure: Animal tests were performed to confirm anti-inflammatory, anti-crypt cell damage, anti-ulcer, anti-edema, and anti-fibrosis effects of a vactosertib/bentonite complex using a mouse model of ulcerative colitis as one of inflammatory bowel diseases. C57BL/6 mice were selected as test animals, and in order to induce ulcerative colitis, a cycle in which an inflammation inducing substance, DSS was added in drinking water and supplied for 7 days, and then normal drinking water was supplied for 14 days was repeated. Such an inflammation inducing cycle was repeated 3 times to induce chronic inflammation, ulcer and fibrous conditions in the large intestine. […]
In order to observe an immunohistochemical change of a large intestine tissue, a tissue fixed to a 10% neutral buffer formalin solution was sliced, attached to a coating slide, and deparaffinized, and then stained, and IHC of reacting with antibodies IL-6 (Interleukin-6), α-SMA (α-smooth muscle actin), and TGF-β (transforming growth factor beta) on each slide was requested to an external institute (Notus) and the test was performed. In an individual-specific tissue slide, three constant zones were specified and imaged 100 times, a stained portion to the total area was measured, and a mean value was calculated (Zen 2.3 blue edition, Carl Zeiss, Germany). […]

[5] = DSS 2% mice, oral twice a day, 5 days a week, 6 weeks, bentonite 106.8, vactosertib 20.0, complex 126.8 mg/kg, 3 point scale

For `Cc1cccc(-c2[nH]c(CNc3ccccc3F)nc2-c2ccc3ncnn3c2)n1` [Vactosertib, N-((4-([1,2,4]triazolo[1,5-a]pyridine-6-yl)-5-(6-methylpyridin-2-yl)-1H-imidazol-2-yl)methyl)-2-fluoroaniline], the solubility ([1]; 25 °C, water, thermodynamic from solid, saturated aqueous solution at 25±3° C., pH 7.2) was less than 20 µg/mL, the “pH of a saturated aqueous solution” value ([1]; 25±3° C.) was 7.2 and the solubility ([1]; aqueous solution, aqueous buffer, at pH 2.81) was 25000 µg/mL (≈ 62700 µM). The solubility ([1]; aqueous solution, aqueous buffer, at pH 3) was roughly 1000 µg/mL (≈ 2500 µM), the solubility ([1]; aqueous solution, aqueous buffer, in pH 4.9 or higher) was no more than 20 µg/mL and the “partition coefficient (octanol/water) Log Do/w” value [2] was 3.31. It also gave an Adsorption rate ([3]; vactosertib 0.01 mg/mL, bentonite 0.5 mg/mL, pH 1) of 99.4 ± 0.1%, an Adsorption rate ([3]; vactosertib 0.025 mg/mL, bentonite 0.5 mg/mL, pH 1) of 99.8 ± 0.0% and an Adsorption rate ([3]; vactosertib 0.05 mg/mL, bentonite 0.5 mg/mL, pH 1) of 99.8 ± 0.1%. The Adsorption rate ([3]; vactosertib 0.1 mg/mL, bentonite 0.5 mg/mL, pH 1) was 80.7 ± 1.0%, the Adsorption rate ([3]; vactosertib 0.1 mg/mL, bentonite 0.5 mg/mL, pH 2) was 79.3 ± 1.0% and the Adsorption rate ([3]; vactosertib 0.1 mg/mL, bentonite 0.5 mg/mL, pH 3) was 79.0 ± 0.8%. The Adsorption rate ([3]; vactosertib 0.15 mg/mL, bentonite 0.5 mg/mL, pH 1) was 57.1 ± 1.5%, the Adsorption rate ([3]; vactosertib 0.2 mg/mL, bentonite 0.5 mg/mL, pH 1) was 43.8 ± 0.5% and the Adsorption rate ([3]; vactosertib 0.3 mg/mL, bentonite 0.5 mg/mL, pH 1) was 31.2 ± 1.2%. It also gave an Adsorption rate ([3]; vactosertib 0.4 mg/mL, bentonite 0.5 mg/mL, pH 1) of 23.0 ± 0.8%, an Adsorption rate ([3]; vactosertib 0.5 mg/mL, bentonite 0.5 mg/mL, pH 1) of 19.0 ± 0.9% and an Adsorption rate ([3]; vactosertib 1 mg/mL, bentonite 5 mg/mL, pH 1) of 90.4 ± 0.2%. For the same compound, the “Edema score (mean)” value ([4]; DSS 2% mice, oral twice a day, 5 days a week, 6 weeks, bentonite 106.8, vactosertib 20.0, complex 126.8 mg/kg, 1 point scale) was 0.3, the “Fibrosis score (mean)” value [4, 5] was 1.5 and the “Ulcer score (mean)” value [4, 5] was 0.9. For the same compound, the “Crypt cell damage score (mean)” value ([4]; DSS 2% mice, oral twice a day, 5 days a week, 6 weeks, bentonite 106.8, vactosertib 20.0, complex 126.8 mg/kg, 4 point scale) was 2, the “Inflammation score (mean)” value ([4]; DSS 2% mice, oral twice a day, 5 days a week, 6 weeks, bentonite 106.8, vactosertib 20.0, complex 126.8 mg/kg, 5 point scale) was 3.6 and the “median of inflammation index compared with the positive control group (G2)” value ([4]; FIG. 15, Dunn's test) was “slightly low in a median of an inflammation index”. The “median of crypt cell damage index compared with the positive control group (G2)” value ([4]; FIG. 16, Dunn's test) was “low in a median of a crypt cell damage index, but had no statistical significance”, the “median of ulcer index compared with the positive control group (G2)” value ([4]; FIG. 17, Dunn's test) was “low in a median of an ulcer index, but had no statistical significance” and the “median of fibrosis index compared with the positive control group (G2)” value ([4]; FIG. 19, Dunn's test) was “slightly low in a median of a fibrosis index”. The “median of summed severity scores (inflammation, crypt cell damage, ulcer, edema) compared with the positive control group (G2)” value ([4]; FIG. 20, Dunn's test) was “low in a median of an ulcer index, but had no statistical significance”, the “Histopathologic total score (mean)” value ([4]; sum of inflammation, crypt cell damage, ulcer, edema (fibrosis excluded), same dosing) was 6.8 and the “reduction of IL-6 staining area compared with G2 group” value (interleukin 6 (IL-6)) was 23.0%. The “IL-6 (Area %)” value (interleukin 6 (IL-6); mean and standard error) was 9.7 ± 2.9 Area %.
